Where a name gives a salt, the structure may show the parent alone.
System: not listed separately
Test: Solubility in simulated lung fluid
Format: physicochemical
Conditions: Phosphate buffer, pH 6.9, 0.75 mM lecithin, 0.1% BSA, 37° C. over 4 hours

Question: Which solubility at 4 h does the source give for `Fc1ccc(O[C@H]2C[C@H](NCc3cccn4ccnc34)C2)cc1C(F)(F)F.O=C(O)/C=C\C(=O)O` [Example 7B, trans-3-{[4-Fluoro-3-(trifluoromethyl)phenyl]oxy}-N-(imidazo[1,2-a]pyridin-8-ylmethyl)cyclobutanamine, maleate salt] here?
Answer: 1780 µg/mL

System: i.v. Capsaicin Induced Bronchoconstriction
Test: Inhibition of i.v. capsaicin induced bronchoconstriction in anesthetized guinea pigs
Format: in vivo
Conditions: Cavia porcellus, intra-tracheal dosing 1 hour before capsaicin 20 ug/kg i.v., estimated from dose response 0.005-5 mg/kg
Method: Male Hartley Guinea Pigs weighing between 400 and 700 g were anesthetized with ketamine/xylazine mixture (88/15 mg/kg, i.m.). Animals were placed on their back, a toe pinch was performed to ensure depth of anaesthesia and a section of skin and fur was dissected away from the neck. The trachea, jugular vein, and carotid artery were isolated and cannulated to allow for ventilation, drug delivery, and blood pressure monitoring. Compounds were delivered via intra-tracheal delivery (in 200 uL of 0.5% Tween 80) 1 hour before capsaicin challenge. Depth of anaesthesia was confirmed by toe pinch and the Guinea pigs were placed in the full body plethysmograph. The chamber was closed and the animal was paralyzed by administration of Gallamine (2 mg/kg i.v.). Animals were ventilated at ˜1.0 mL/110 g, 60-65 breaths per minute by a Harvard Apparatus rodent respirator. Blood pressure and heart rate were continuously monitored to assess the level of anaesthesia, with supplemental anaesthetic doses given as required to maintain the proper level of anaesthesia. […] The BioWindow Cardio Pulmonary Software version 1.02 (Modular Instruments, Inc.) recorded arterial pressure, pulmonary pressure and airflow. Air pressure delta (difference between maximum and minimum air pressure) was used as the primary readout of inhibition of the capsaicin induced bronchoconstriction. […]

Question: With `Cl.Fc1ccc(O[C@H]2C[C@H](NCc3cccn4ccnc34)C2)cc1C(F)(F)F` [Example 7A, trans-3-{[4-Fluoro-3-(trifluoromethyl)phenyl]oxy}-N-(imidazo[1,2-a]pyridin-8-ylmethyl)cyclobutanamine, hydrochloride salt] as the compound, how does the ED50 read?
Answer: 0.033 mg/kg

Same assay, conditions: dose 30 ug/kg intra-tracheal, 1 hour before capsaicin 20 ug/kg i.v., n=3

Question: With `OCc1ccc(CN[C@H]2C[C@H](Oc3cccc(Cl)c3Cl)C2)c2nccn12` [Example 13, {8-[({trans-3-[(2,3-Dichlorophenyl)oxy]cyclobutyl}amino)methyl]imidazo[1,2-a]pyridin-5-yl}methanol] as the compound, how does the “inhibition of capsaicin induced bronchoconstriction” value read?
Answer: 61% (+/−16.6%)

Biological target: T1, TRPV1 receptor (Homo sapiens, UniProt Q8NER1)
T1 construct: expressed in transfected cells; host or cells: HEK-293 cells stably expressing mitochondrial targeted Aequorin, transduced with TRPV1 BacMam
Test: Capsaicin assay for TRPV1 receptor antagonism (aequorin luminescence, HEK-293 cells expressing TRPV1)
Format: cell-based
Conditions: HEK-293 cells expressing TRPV1, pH 7.4, challenge with 4×EC50 capsaicin, 15 min preincubation; read-out: pIC50 in the Capsaicin assay (converted)
Method: Assays for the functional inhibition of TRPV1 Ion Channel by test compound using Capsaicin or Acid Stimulus challenge were performed.
Compounds were dissolved in DMSO to 1 mM. An 11 point 4 fold serial dilution was prepared and 0.5 ul dispensed into Greiner black clear bottom 384 well plates.
HEK-293 cells stably expressing mitochondrial targeted Aequorin were transfected with TRPV1 receptor bacmam at scale for cryopreservation in 1 ml vial aliquots. Cells can be stored at −140° C. for up to 18 months.
18-20 hours before assay, cells were rapidly thawed in a water bath at 37° C. and transferred to a 50 ml Falcon tube. Cells were resuspended in 9 mls of M1 ‘generic’ media (DMEM/F12 with 10% dialysed FBS-Invitrogen 041-95750V) for every 1 ml cells and then centrifuged for 5 min at 1000 rpm. The cell pellet was resuspended in ˜10 mls loading buffer (Tyrodes Base Buffer*+0.1% Pluronic Acid F68 solution+0.1% BSA) and the pH was adjusted to 7.4 for Capsaicin stimulus assay or 6.7 for Acid stimulus assay. Cell density was calculated using the Trypan Blue stain method and adjusted to 2.5×10 e6 cells/ml using loading buffer. Coelentrazine (DiscoverX Cat. No 0-0084L-500 uM stock made in 100% ethanol) was added to a final concentration of 5 uM and the falcon tube was covered in foil (to protect from light) and placed on a windmill rotator at room temperature for approximately 20 hours. *Base Buffer=Sigma kit T2145 was dissolved in deionised water, 20 mL HEPES solution (Sigma H0887) and 13.4 mL of NaHCO3 (Sigma S8761) and made up to 1 L.
After loading, a cell count was taken and cell density adjusted accordingly depending on assay stimulus.
For Capsaicin stimulus assay cells were diluted to 1.25×10 e5 cells/ml using dilution buffer (Tyrodes Base Buffer+0.1% Pluronic Acid F68 solution) at pH 7.4
To the compound plates, the following additions were made:
20 ul dilution buffer at pH 7.4 followed by 20 ul cells were added to the test compound plate and any agonist activity measured as luminescence AUC counts. The compound/cell mix was incubated for 15 minutes and then challenged with 20 ul of a 4×EC50 concentration of Capsaicin (calculated on the day of assay), with concomitant luminescence detection.
AUC data was exported from the reader and data analysis was performed using 4 parameter logistic model, with data normalised to nominal high and low controls within plate.

T1 sequence (Q8NER1 whole entry): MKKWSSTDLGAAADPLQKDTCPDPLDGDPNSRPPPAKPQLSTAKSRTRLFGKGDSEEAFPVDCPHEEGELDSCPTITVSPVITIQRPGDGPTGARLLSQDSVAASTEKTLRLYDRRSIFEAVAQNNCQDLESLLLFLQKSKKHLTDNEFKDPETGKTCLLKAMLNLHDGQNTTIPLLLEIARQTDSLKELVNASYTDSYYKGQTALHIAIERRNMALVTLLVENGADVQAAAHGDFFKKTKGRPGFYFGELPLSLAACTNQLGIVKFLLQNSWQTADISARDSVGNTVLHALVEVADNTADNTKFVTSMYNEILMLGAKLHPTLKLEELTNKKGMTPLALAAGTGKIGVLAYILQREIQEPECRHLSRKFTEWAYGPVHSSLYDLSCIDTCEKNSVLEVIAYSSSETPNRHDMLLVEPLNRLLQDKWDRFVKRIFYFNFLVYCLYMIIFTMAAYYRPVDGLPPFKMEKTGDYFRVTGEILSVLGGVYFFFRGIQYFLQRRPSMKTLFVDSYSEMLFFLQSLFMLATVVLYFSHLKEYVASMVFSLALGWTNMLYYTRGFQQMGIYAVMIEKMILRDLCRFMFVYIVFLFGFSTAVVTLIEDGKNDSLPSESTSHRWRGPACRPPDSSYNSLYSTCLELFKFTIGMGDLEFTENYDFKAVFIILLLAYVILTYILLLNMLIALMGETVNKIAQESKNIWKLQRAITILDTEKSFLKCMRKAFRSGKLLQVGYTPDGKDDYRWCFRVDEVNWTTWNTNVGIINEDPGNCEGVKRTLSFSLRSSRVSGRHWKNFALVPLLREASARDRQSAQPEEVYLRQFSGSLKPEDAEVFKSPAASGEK

Question: Which IC50 does the source give for `FC(F)(F)c1cccc(O[C@H]2C[C@H](NCc3cccn4ccnc34)C2)c1` [Example 1, trans-N-(Imidazo[1,2-a]pyridin-8-ylmethyl)-3-{[3-(trifluoromethyl)phenyl]oxy}cyclobutanamine] here?
Answer: 1.26 to 100 nM

Question: For `Clc1cccc(O[C@H]2C[C@H](NCc3cccn4ccnc34)C2)c1Cl` [Example 2, trans-3-[(2,3-Dichlorophenl)oxy]-N-(imidazo[1,2-a]pyridin-8-ylmethyl)cyclobutanamine], which IC50 is on record?
Answer: 1.26 to 100 nM

Question: Which IC50 does the source give for `FC(F)(F)c1cccc(O[C@H]2C[C@H](NCc3cccn4ccnc34)C2)c1Cl` [Example 4, trans-3-{[2-Chloro-3-(trifluoromethyl)phenyl]oxy}-N-(imidazo[1,2-a]pyridin-8-ylmethyl)cyclobutanamine] here?
Answer: 1.26 to 100 nM

Question: Which IC50 does the source give for `Fc1ccc(O[C@H]2C[C@H](NCc3cccn4ccnc34)C2)cc1Cl` [Example 5, trans-3-[(3-Chloro-4-fluorophenyl)oxy]-N-(imidazo[1,2-a]pyridin-8-ylmethyl)cyclobutanamine, trifluoroacetate] here?
Answer: 1.26 to 100 nM

Question: Which IC50 does the source give for `FC(F)(F)c1cc(O[C@H]2C[C@H](NCc3cccn4ccnc34)C2)ccc1Cl` [Example 6, trans-3-{[4-Chloro-3-(trifluoromethyl)phenyl]oxy}-N-(imidazo[1,2-a]pyridin-8-ylmethyl)cyclobutanamine] here?
Answer: 1.26 to 100 nM

Question: Which IC50 does the source give for `Fc1ccc(O[C@H]2C[C@H](NCc3cccn4ccnc34)C2)cc1C(F)(F)F` [Example 7, trans-3-{[4-Fluoro-3-(trifluoromethyl)phenyl]oxy}-N-(imidazo[1,2-a]pyridin-8-ylmethyl)cyclobutanamine] here?
Answer: 1.26 to 100 nM

Question: Which IC50 does the source give for `FC(F)(F)c1ccc(O[C@H]2C[C@H](NCc3cccn4ccnc34)C2)c(Cl)c1` [Example 8, trans-3-{[2-Chloro-4-(trifluoromethyl)phenyl]oxy}-N-(imidazo[1,2-a]pyridin-8-ylmethyl)cyclobutanamine] here?
Answer: 1.26 to 100 nM

Question: Which IC50 does the source give for `FC(F)(F)c1cc(Cl)ccc1O[C@H]1C[C@H](NCc2cccn3ccnc23)C1` [Example 9, trans-3-{[4-Chloro-2-(trifluoromethyl)phenyl]oxy}-N-(imidazo[1,2-a]pyridin-8-ylmethyl)cyclobutanamine] here?
Answer: 1.26 to 100 nM

Question: With `CC(C)(C)c1c(F)cc(O[C@H]2C[C@H](NCc3cccn4ccnc34)C2)cc1F` [Example 11, trans-3-{[4-(1,1-Dimethylethyl)-3,5-difluorophenyl]oxy}-N-(imidazo[1,2-a]pyridin-8-ylmethyl)cyclobutanamine] as the compound, how does the IC50 read?
Answer: 1.26 to 100 nM

Question: With `CC(C)(C)c1c(F)cc(O[C@H]2C[C@@H](NCc3cccn4ccnc34)C2)cc1F` [Example 12, cis-3-{[4-(1,1-Dimethylethyl)-3,5-difluorophenyl]oxy}-N-(imidazo[1,2-a]pyridin-8-ylmethyl)cyclobutanamine] as the compound, how does the IC50 read?
Answer: 1.26 to 100 nM

Question: Which IC50 does the source give for `OCc1ccc(CN[C@H]2C[C@H](Oc3cccc(Cl)c3Cl)C2)c2nccn12` [Example 13, {8-[({trans-3-[(2,3-Dichlorophenyl)oxy]cyclobutyl}amino)methyl]imidazo[1,2-a]pyridin-5-yl}methanol] here?
Answer: 1.26 to 100 nM

Question: With `OCc1ccc(CN[C@H]2C[C@H](Oc3ccc(F)c(C(F)(F)F)c3)C2)c2nccn12` [Example 14, (8-{[(trans-3-{[4-Fluoro-3-(trifluoromethyl)phenyl]oxy}cyclobutyl)amino]methyl}imidazo[1,2-a]pyridin-5-yl)methanol] as the compound, how does the IC50 read?
Answer: 1.26 to 100 nM

Question: For `OCc1cnc2c(CN[C@H]3C[C@H](Oc4cccc(Cl)c4Cl)C3)cccn12` [Example 15, {8-[({trans-3-[(2,3-Dichlorophenyl)oxy]cyclobutyl}amino)methyl]imidazo[1,2-a]pyridin-3-yl}methanol], which IC50 is on record?
Answer: 1.26 to 100 nM

— patent US8754101B2, “N-cyclobutyl-imidazopyridine-methylamine as TRPV1 antagonists” (Glaxo Group Limited, priority 2011, dated 2014)
